Measurements from publication PMC6472032 (Marine Drugs, 2019).
Positions of bridges follow the written chain, without caps; N, C: chain ends. Non-standard residues stand in square brackets, D forms with d. Residues, ends and D or L forms follow the SMILES beside them.

Columns and labels:
[1] = biological target: human α9α10 nAChR (Homo sapiens, UniProt Q9GZZ6+Q9UGM1); assay: cell-based; conditions: for inhibition at 10 µM: read-out: inhibition of ACh-evoked currents
[2] = biological target: rat α9α10 nAChR (Rattus norvegicus, UniProt P43144+Q9JLB5); assay: cell-based; conditions: for inhibition at 0.1 µM: read-out: inhibition of ACh-evoked current amplitude; for inhibition of ACh-evoked current amplitude: 0.1 µM
[3] = biological target: rat α2β4 nAChR (Rattus norvegicus, UniProt P12389+P12392); format: cell-based
[4] = biological target: rat α4β2 nAChR (Rattus norvegicus, UniProt P09483+P12390); format: cell-based
[5] = biological target: rat α4β4 nAChR (Rattus norvegicus, UniProt P09483+P12392); format: cell-based
[6] = biological target: rat α6/α3β4 nAChR (Rattus norvegicus, UniProt P04757+P12392+P43143); format: cell-based
[7] = biological target: rat α3β2 nAChR (Rattus norvegicus, UniProt P04757+P12390); format: cell-based

Chain of rat α6/α3β4 nAChR (P04757 whole entry, looked up): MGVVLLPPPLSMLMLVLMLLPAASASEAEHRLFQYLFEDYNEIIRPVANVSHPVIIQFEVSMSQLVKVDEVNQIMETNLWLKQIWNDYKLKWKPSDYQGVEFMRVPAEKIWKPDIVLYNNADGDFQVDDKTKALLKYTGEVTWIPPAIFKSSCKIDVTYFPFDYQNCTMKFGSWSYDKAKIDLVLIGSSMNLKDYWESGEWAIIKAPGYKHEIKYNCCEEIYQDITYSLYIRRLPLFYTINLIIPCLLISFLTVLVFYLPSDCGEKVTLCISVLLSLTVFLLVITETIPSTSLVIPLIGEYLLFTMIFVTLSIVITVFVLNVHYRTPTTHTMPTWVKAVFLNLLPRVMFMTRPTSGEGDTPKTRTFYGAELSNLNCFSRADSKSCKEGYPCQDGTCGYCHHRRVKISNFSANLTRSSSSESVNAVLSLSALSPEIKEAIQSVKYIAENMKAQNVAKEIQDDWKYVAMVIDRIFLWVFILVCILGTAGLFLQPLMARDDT
Chain of rat α6/α3β4 nAChR (P12392 whole entry, looked up): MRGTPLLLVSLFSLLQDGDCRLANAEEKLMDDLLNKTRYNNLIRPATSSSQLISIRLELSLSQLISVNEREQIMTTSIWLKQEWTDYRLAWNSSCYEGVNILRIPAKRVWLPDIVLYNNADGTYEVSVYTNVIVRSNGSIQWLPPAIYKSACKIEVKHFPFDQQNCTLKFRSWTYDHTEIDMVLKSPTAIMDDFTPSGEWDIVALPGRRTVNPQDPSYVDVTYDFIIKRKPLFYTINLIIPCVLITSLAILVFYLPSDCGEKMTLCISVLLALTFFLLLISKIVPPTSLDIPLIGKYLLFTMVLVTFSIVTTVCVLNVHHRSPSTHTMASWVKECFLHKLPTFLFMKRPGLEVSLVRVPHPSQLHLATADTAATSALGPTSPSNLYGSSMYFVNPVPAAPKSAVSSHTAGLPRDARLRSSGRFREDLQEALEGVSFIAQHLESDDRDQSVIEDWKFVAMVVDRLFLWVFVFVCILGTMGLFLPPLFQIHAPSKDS
Chain of rat α6/α3β4 nAChR (P43143 whole entry, looked up): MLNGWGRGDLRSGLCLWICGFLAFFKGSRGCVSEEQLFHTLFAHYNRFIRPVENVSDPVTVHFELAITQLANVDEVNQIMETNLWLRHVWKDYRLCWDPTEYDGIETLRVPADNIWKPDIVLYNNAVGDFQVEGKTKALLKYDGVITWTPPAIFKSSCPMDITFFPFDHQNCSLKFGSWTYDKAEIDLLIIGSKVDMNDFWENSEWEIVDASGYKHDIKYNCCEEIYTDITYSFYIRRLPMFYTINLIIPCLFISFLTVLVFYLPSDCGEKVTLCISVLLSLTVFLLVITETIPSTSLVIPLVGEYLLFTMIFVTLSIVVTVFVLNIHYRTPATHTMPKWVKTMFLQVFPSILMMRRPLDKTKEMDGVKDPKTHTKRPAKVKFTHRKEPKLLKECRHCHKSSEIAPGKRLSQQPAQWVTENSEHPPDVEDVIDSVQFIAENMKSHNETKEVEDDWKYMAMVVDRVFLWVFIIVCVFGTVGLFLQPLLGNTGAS
Chain of rat α9α10 nAChR (P43144 26-479 limits assumed): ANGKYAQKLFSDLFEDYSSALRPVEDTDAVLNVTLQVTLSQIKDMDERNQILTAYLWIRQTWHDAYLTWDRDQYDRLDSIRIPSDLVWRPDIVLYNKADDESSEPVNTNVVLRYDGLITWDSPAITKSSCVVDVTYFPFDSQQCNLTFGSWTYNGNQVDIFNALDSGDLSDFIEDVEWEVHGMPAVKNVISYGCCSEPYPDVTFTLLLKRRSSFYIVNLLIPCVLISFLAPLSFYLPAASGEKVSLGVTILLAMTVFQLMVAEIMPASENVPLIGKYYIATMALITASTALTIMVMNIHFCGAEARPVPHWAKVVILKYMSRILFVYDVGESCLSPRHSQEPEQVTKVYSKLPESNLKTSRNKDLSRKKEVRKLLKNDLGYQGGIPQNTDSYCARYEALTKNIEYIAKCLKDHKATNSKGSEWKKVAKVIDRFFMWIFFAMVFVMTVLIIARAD
Chain of rat α9α10 nAChR (Q9JLB5 25-447 limits assumed): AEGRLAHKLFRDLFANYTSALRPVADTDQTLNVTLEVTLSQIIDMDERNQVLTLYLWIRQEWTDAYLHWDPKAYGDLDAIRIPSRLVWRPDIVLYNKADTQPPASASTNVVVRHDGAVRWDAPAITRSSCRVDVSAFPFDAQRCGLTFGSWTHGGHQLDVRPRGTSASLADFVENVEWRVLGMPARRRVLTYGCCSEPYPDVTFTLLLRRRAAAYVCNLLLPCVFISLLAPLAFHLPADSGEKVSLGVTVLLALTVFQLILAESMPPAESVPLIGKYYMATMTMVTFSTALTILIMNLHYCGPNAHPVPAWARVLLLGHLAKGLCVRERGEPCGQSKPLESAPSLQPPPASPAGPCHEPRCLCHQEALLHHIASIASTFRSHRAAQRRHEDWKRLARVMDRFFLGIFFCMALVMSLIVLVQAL
Chain of rat α4β2 nAChR (P09483 31-630 limits assumed): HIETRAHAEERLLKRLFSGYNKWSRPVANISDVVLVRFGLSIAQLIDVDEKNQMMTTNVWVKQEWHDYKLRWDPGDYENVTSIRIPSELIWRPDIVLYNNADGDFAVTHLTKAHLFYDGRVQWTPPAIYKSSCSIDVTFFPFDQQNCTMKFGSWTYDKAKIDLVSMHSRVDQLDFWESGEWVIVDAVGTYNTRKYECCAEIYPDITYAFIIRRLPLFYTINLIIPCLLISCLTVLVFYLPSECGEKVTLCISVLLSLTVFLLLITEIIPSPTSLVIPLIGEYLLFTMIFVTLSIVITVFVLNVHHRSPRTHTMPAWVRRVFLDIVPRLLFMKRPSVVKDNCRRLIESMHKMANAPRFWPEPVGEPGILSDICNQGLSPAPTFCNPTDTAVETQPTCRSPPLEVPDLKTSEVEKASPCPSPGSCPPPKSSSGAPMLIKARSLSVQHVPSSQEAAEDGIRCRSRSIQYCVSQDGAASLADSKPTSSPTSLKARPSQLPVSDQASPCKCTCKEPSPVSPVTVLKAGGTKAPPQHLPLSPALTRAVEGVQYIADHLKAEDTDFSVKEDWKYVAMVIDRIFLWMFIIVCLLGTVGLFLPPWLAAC
Chain of rat α4β2 nAChR (P12390 25-500 limits assumed): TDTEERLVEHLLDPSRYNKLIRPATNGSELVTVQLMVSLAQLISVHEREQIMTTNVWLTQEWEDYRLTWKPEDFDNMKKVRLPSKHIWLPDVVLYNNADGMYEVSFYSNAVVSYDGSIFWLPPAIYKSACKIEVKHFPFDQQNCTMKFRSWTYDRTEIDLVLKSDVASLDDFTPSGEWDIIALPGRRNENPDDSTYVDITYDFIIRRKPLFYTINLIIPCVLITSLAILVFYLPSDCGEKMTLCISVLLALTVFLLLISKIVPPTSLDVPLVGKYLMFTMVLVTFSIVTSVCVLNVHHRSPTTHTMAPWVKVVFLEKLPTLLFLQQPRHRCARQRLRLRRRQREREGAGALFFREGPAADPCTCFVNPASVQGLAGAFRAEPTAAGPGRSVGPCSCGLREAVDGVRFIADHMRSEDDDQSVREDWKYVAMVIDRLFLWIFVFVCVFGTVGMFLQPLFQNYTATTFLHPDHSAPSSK
Chain of rat α4β4 nAChR (P09483 31-630 limits assumed): as the sequence (P09483 31-630 limits assumed) above
Chain of rat α4β4 nAChR (P12392 21-495 limits assumed): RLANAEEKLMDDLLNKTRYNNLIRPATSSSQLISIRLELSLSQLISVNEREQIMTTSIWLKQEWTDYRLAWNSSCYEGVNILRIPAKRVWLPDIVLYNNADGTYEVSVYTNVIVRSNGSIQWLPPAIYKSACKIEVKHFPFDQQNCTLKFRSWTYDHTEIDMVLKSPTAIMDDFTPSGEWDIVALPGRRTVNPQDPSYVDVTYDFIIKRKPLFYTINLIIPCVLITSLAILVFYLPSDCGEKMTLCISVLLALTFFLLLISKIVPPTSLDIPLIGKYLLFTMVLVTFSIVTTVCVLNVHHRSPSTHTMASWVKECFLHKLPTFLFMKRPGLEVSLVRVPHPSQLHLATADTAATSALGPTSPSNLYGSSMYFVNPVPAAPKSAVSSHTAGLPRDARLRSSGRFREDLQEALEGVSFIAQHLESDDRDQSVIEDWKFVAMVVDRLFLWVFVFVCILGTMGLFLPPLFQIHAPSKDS
Chain of rat α2β4 nAChR (P12389 28-511 limits assumed): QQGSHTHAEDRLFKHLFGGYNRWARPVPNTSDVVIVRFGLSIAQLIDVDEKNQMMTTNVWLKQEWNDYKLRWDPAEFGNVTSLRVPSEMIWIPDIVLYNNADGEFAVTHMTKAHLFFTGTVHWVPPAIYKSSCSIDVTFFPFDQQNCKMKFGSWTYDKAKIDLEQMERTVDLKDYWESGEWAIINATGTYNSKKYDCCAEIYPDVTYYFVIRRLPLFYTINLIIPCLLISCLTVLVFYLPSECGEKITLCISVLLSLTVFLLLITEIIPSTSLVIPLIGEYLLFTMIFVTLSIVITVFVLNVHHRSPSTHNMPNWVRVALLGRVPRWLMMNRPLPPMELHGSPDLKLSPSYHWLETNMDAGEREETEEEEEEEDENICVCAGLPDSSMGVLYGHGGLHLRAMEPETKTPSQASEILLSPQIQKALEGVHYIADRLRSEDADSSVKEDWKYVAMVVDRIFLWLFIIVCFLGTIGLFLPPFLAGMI
Chain of rat α2β4 nAChR (P12392 21-495 limits assumed): as the sequence (P12392 21-495 limits assumed) above

| SMILES | inhibition at 0.1 µM [2] [%] | activity at a concentration of 10 μM [2] | activity against rat α2β4 nAChR [3] | activity against rat α4β2 nAChR [4] | inhibition at 10 µM [1] [%] | activity against rat α4β4 nAChR [5] | activity against rat α6/α3β4 nAChR [6] | activity against rat α3β2 nAChR [7] | other results |
| --- | --- | --- | --- | --- | --- | --- | --- | --- | --- |
| C[C@@H](N)C(=O)N[C@H]1CSSC[C@@H]2NC(=O)[C@H](CCCNC(=N)N)NC(=O)[C@@H]3CCCN3C(=O)[C@H](CC(=O)O)NC(=O)[C@H](CO)NC(=O)[C@H](CSSC[C@@H](C(=O)N[C@@H](CCCNC(=N)N)C(=O)O)NC(=O)[C@H](CCCNC(=N)N)NC(=O)[C@H](Cc3ccc(O)cc3)NC(=O)[C@H](CCCNC(=N)N)NC2=O)NC1=O [Compound 1] (H-[dA]CCSDPRCRYRCR-OH; disulfide 2-8, 3-12) | 70.6 ± 2 | – | – | – | – | – | – | – | IC50 [1]: > 10000 nM; IC50 [2]: 41.1 nM |
| N=C(N)NCCC[C@H](NC(=O)[C@@H]1CSSC[C@H]2NC(=O)[C@@H](NC(=O)CN)CSSC[C@H](NC(=O)[C@H](CCCNC(=N)N)NC(=O)[C@@H]3CCCN3C(=O)[C@H](CC(=O)O)NC(=O)[C@H](CO)NC2=O)C(=O)N[C@@H](CCCNC(=N)N)C(=O)N[C@@H](Cc2ccc(O)cc2)C(=O)N[C@@H](CCCNC(=N)N)C(=O)N1)C(=O)O [Compound 3] | 78.7 ± 2 | – | – | – | – | – | – | – | – |
| N=C(N)NCCC[C@H](NC(=O)[C@@H]1CSSC[C@@H]2NC(=O)[C@@H](NC(=O)CN)CSSC[C@H](NC(=O)[C@H](CCCNC(=N)N)NC(=O)[C@@H]3CCCN3C(=O)[C@H](CC(=O)O)NC(=O)[C@@H](CO)NC2=O)C(=O)N[C@@H](CCCNC(=N)N)C(=O)N[C@@H](Cc2ccc(O)cc2)C(=O)N[C@@H](CCCNC(=N)N)C(=O)N1)C(=O)O [Compound 4] | – | not active | – | – | – | – | – | – | – |
| N=C(N)NCCC[C@H](NC(=O)[C@@H]1CSSC[C@@H]2NC(=O)[C@@H](NC(=O)CN)CSSC[C@H](NC(=O)[C@H](CCCNC(=N)N)NC(=O)[C@@H]3CCCN3C(=O)[C@@H](CC(=O)O)NC(=O)[C@H](CO)NC2=O)C(=O)N[C@@H](CCCNC(=N)N)C(=O)N[C@@H](Cc2ccc(O)cc2)C(=O)N[C@@H](CCCNC(=N)N)C(=O)N1)C(=O)O [Compound 5] | – | not active | – | – | – | – | – | – | – |
| N=C(N)NCCC[C@H](NC(=O)[C@@H]1CSSC[C@@H]2NC(=O)[C@@H](NC(=O)CN)CSSC[C@H](NC(=O)[C@H](CCCNC(=N)N)NC(=O)[C@H]3CCCN3C(=O)[C@H](CC(=O)O)NC(=O)[C@H](CO)NC2=O)C(=O)N[C@@H](CCCNC(=N)N)C(=O)N[C@@H](Cc2ccc(O)cc2)C(=O)N[C@@H](CCCNC(=N)N)C(=O)N1)C(=O)O [Compound 6] | – | not active | – | – | – | – | – | – | – |
| N=C(N)NCCC[C@H](NC(=O)[C@@H]1CSSC[C@@H]2NC(=O)[C@@H](NC(=O)CN)CSSC[C@H](NC(=O)[C@@H](CCCNC(=N)N)NC(=O)[C@@H]3CCCN3C(=O)[C@H](CC(=O)O)NC(=O)[C@H](CO)NC2=O)C(=O)N[C@@H](CCCNC(=N)N)C(=O)N[C@@H](Cc2ccc(O)cc2)C(=O)N[C@@H](CCCNC(=N)N)C(=O)N1)C(=O)O [Compound 7] | – | not active | – | – | – | – | – | – | – |
| N=C(N)NCCC[C@H](NC(=O)[C@@H]1CSSC[C@@H]2NC(=O)[C@@H](NC(=O)CN)CSSC[C@H](NC(=O)[C@H](CCCNC(=N)N)NC(=O)[C@@H]3CCCN3C(=O)[C@H](CC(=O)O)NC(=O)[C@H](CO)NC2=O)C(=O)N[C@@H](CCCNC(=N)N)C(=O)N[C@@H](Cc2ccc(O)cc2)C(=O)N[C@H](CCCNC(=N)N)C(=O)N1)C(=O)O [Compound 11] | – | not active | – | – | – | – | – | – | – |
| N=C(N)NCCC[C@@H]1NC(=O)[C@@H]2CSSC[C@H](NC(=O)CN)C(=O)N[C@@H](CSSC[C@@H](C(=O)N[C@H](CCCNC(=N)N)C(=O)O)NC(=O)[C@H](CCCNC(=N)N)NC(=O)[C@H](Cc3ccc(O)cc3)NC1=O)C(=O)N[C@@H](CO)C(=O)N[C@@H](CC(=O)O)C(=O)N1CCC[C@H]1C(=O)N[C@@H](CCCNC(=N)N)C(=O)N2 [Compound 13] | 97.2 ± 0.05 | – | inactive | inactive | 70 to 90 | inactive | inactive | inactive | – |
| N=C(N)NCCC[C@@H](NC(=O)[C@@H]1CSSC[C@@H]2NC(=O)[C@@H](NC(=O)CN)CSSC[C@H](NC(=O)[C@@H](CCCNC(=N)N)NC(=O)[C@@H]3CCCN3C(=O)[C@H](CC(=O)O)NC(=O)[C@H](CO)NC2=O)C(=O)N[C@H](CCCNC(=N)N)C(=O)N[C@@H](Cc2ccc(O)cc2)C(=O)N[C@H](CCCNC(=N)N)C(=O)N1)C(=O)O [Compound 14] | – | – | inactive | inactive | 70 to 90 | inactive | inactive | inactive | inhibition of ACh-evoked current amplitude [2]: did not inhibit |
| N=C(N)NCCC[C@H]1NC(=O)[C@H](Cc2ccc(O)cc2)NC(=O)[C@@H](CCCNC(=N)N)NC(=O)[C@@H]2CSSC[C@H](NC(=O)CN)C(=O)N[C@@H](CSSC[C@@H](C(N)=O)NC1=O)C(=O)N[C@@H](CO)C(=O)N[C@@H](CC(=O)O)C(=O)N1CCC[C@H]1C(=O)N[C@H](CCCNC(=N)N)C(=O)N2 [Compound 15] (H-GCCSDP[dR]C[dR]Y[dR]C-NH2; disulfide 2-8, 3-12) | – | – | inactive | inactive | 70 to 90 | inactive | inactive | inactive | IC50 [1]: 680 nM; IC50 [2]: 288 nM; inhibition of ACh-evoked current amplitude [2]: did not inhibit |
